One assay relates to prostate cancer cells. As to conditions: exogenous metabolite, previous work [7, 8, 17]; cited from earlier work.
The subject of the next assay is 5-LOX. The assay is described as follows: Production of 5-oxoETE in PC3 cells measured by LC/MS. To be noted: 10 micromolar, two hours at 37 degree C, control cells 11 picograms per ml. It is filed as cell-based, human. On the procedure: We also measured the production of 5-oxoETE in PC3 prostate cancer cells by liquid chromatography/mass spectrometry “(LC/MS”) to assess whether prostate cancer cells constitutively produce 5-oxoETE as a survival factor. […] PC3 prostate cancer cells (2 million per plate) were plated in 6 ml RPMI medium in serum-free medium for 24 hours. On the next day cells were treated with 10 micromolar MK591 (a specific 5-LOX inhibitor) for two hours at 37 degree C., or cells were left untreated. The media were collected, eicosanoids extracted, and measured by LC/MS.

The subject of another assay is PC3 cells. The assay is described as follows: Killing of PC3 cells by 5-LOX inhibitor. It is filed as cell-based, human. As to conditions: 10 micromolar.

“Also recorded” adds a separate entry of the source.

As to `CCCCC/C=C\C/C=C\C/C=C\C=C\[C@@H](O)CCCC(=O)O` [5-HETE, 5(S)-hydroxyeicosatetraenoic acid], the “prevention of apoptosis triggered by 5-LOX inhibition” value with prostate cancer cells is on record as “prevented”. Consider `CCCCC/C=C\C/C=C\C/C=C\C=C\C(=O)CCCC(=O)O` [5-oxoETE, 5-oxoeicosatetraenoic acid], for which the “prevention of apoptosis triggered by 5-LOX inhibition” value in the assay with prostate cancer cells is “prevented; also recorded: more effective”. With `CC(C)(C)Sc1c(CC(C)(C)C(=O)O)n(Cc2ccc(Cl)cc2)c2ccc(OCc3ccc4ccccc4n3)cc12` [MK591], the “eicosanoids (5-oxoETE) in serum-free culture medium” value in the assay with 5-LOX amounted to 0 picograms per ml. In addition, the “killing of PC3 cells” value in the assay on PC3 cells is recorded as “kills PC3 cells”.

(Values after patent US20100130585A1, “METHODS AND COMPOSITIONS FOR INVESTIGATION AND TREATMENT OF CANCER USING A G-PROTEIN COUPLED EICOSANOID RECEPTOR” (priority 2005, published 2010).)
